From US6914045B2, “Glycopeptide antibiotics” (Wyeth Holdings Corporation, priority 2001, dated 2005)
In brackets after ≈: the same amount, converted by molar mass.

Tests used:
Assay in all cases: in vitro antibacterial evaluation, MIC by broth dilution
Format in all cases: cell-based
Enterococcus sp. = conditions: broth dilution, 18 hours at 35° C.; for MIC Enterococcus faecalis (ATCC 29212): strain ATCC 29212; for MIC Enterococcus faecalis (GC 2242): strain GC 2242; for MIC Enterococcus faecium (GC 2243): strain GC 2243; for MIC Enterococcus faecalis (GC 2691): strain GC 2691; for MIC Enterococcus faecalis (GC 3059): strain GC 3059; for MIC Enterococcus faecalis (GC 4552): strain GC 4552; for MIC Enterococcus faecalis (GC 4553): strain GC 4553; for MIC Enterococcus faecalis (GC 4554): strain GC 4554; for MIC Enterococcus faecium (GC 4556): strain GC 4556; for MIC Enterococcus faecium (GC 4557): strain GC 4557; for MIC Enterococcus avium (GC 4558): strain GC 4558; for MIC Enterococcus faecalis (GC 6189): strain GC 6189
How it was run: (§1)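 Test organisms, which included recent clinical isolates resistant to methicillin, penicillin and/or vancomycin, were inoculated at 5×10^5 CFU/mL into Muller-Hinton II […] containing antibiotic at 64-0.06 μg/mL. Minimum inhibitory concentrations were then read as the lowest level inhibiting growth.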

Escherichia coli = system: Escherichia coli
How it was run: as §1

Staphylococcus sp. = conditions: broth dilution, 18 hours at 35° C.; for MIC Staphylococcus aureus (GC 1131): strain GC 1131
How it was run: as §1

Streptococcus sp. = conditions: broth dilution, 18 hours at 35° C.; for MIC Streptococcus pneumoniae (ATCC 6301): strain ATCC 6301; for MIC Streptococcus pneumoniae (GC 1894): strain GC 1894; for MIC Streptococcus pyogenes (GC 4563): strain GC 4563; for MIC Streptococcus agalactiae (GC 4564): strain GC 4564; for MIC Streptococcus pneumoniae (GC 4565): strain GC 4565
How it was run: as §1

- MIC Enterococcus faecalis (ATCC 29212) (Enterococcus sp.; inoculum 5×10^5 CFU/mL): 16 µg/mL (≈ 10.9 µM)
- MIC Enterococcus faecalis (GC 2242) (Enterococcus sp.; inoculum 5×10^5 CFU/mL): 16 µg/mL (≈ 10.9 µM)
- MIC Enterococcus faecium (GC 2243) (Enterococcus sp.; inoculum 5×10^5 CFU/mL): 8 µg/mL (≈ 5.46 µM)
- MIC Enterococcus faecalis (GC 2691) (Enterococcus sp.; inoculum 5×10^5 CFU/mL): 16 µg/mL (≈ 10.9 µM)
- MIC Enterococcus faecalis (GC 3059) (Enterococcus sp.; inoculum 5×10^5 CFU/mL): 16 µg/mL (≈ 10.9 µM)
- MIC Enterococcus faecalis (GC 4552) (Enterococcus sp.; inoculum 5×10^5 CFU/mL): 16 µg/mL (≈ 10.9 µM)
- MIC Enterococcus faecalis (GC 4553) (Enterococcus sp.; inoculum 5×10^5 CFU/mL): 16 µg/mL (≈ 10.9 µM)
- MIC Enterococcus faecalis (GC 4554) (Enterococcus sp.; inoculum 5×10^5 CFU/mL): 16 µg/mL (≈ 10.9 µM)
- MIC Enterococcus faecium (GC 4556) (Enterococcus sp.; inoculum 5×10^5 CFU/mL): 16 µg/mL (≈ 10.9 µM)
- MIC Enterococcus faecium (GC 4557) (Enterococcus sp.; inoculum 5×10^5 CFU/mL): 4 µg/mL (≈ 2.73 µM)
- MIC Enterococcus avium (GC 4558) (Enterococcus sp.; inoculum 5×10^5 CFU/mL): 8 µg/mL (≈ 5.46 µM)
- MIC Enterococcus faecalis (GC 6189) (Enterococcus sp.; inoculum 5×10^5 CFU/mL): 16 µg/mL (≈ 10.9 µM)
- MIC Enterococcus faecalis (ATCC 29212) (Enterococcus sp.): 16 µg/mL (≈ 10.9 µM)
- MIC Enterococcus faecalis (GC 2242) (Enterococcus sp.): 16 µg/mL (≈ 10.9 µM)
- MIC Enterococcus faecium (GC 2243) (Enterococcus sp.): 8 µg/mL (≈ 5.46 µM)
- MIC Enterococcus faecalis (GC 2691) (Enterococcus sp.): 16 µg/mL (≈ 10.9 µM)
- MIC Enterococcus faecalis (GC 3059) (Enterococcus sp.): 16 µg/mL (≈ 10.9 µM)
- MIC Enterococcus faecalis (GC 4552) (Enterococcus sp.): 16 µg/mL (≈ 10.9 µM)
- MIC Enterococcus faecalis (GC 4553) (Enterococcus sp.): 16 µg/mL (≈ 10.9 µM)
- MIC Enterococcus faecalis (GC 4554) (Enterococcus sp.): 16 µg/mL (≈ 10.9 µM)
- MIC Enterococcus faecium (GC 4556) (Enterococcus sp.): 16 µg/mL (≈ 10.9 µM)
- MIC Enterococcus faecium (GC 4557) (Enterococcus sp.): 4 µg/mL (≈ 2.73 µM)
- MIC Enterococcus avium (GC 4558) (Enterococcus sp.): 8 µg/mL (≈ 5.46 µM)
- MIC Enterococcus faecalis (GC 6189) (Enterococcus sp.): 16 µg/mL (≈ 10.9 µM)
- MIC Escherichia coli (ATCC 25922) (Escherichia coli; strain ATCC 25922, 18 hours at 35° C.): 32 µg/mL (≈ 21.8 µM)
- MIC Escherichia coli (GC 4559) (Escherichia coli; strain GC 4559, 18 hours at 35° C.): 32 µg/mL (≈ 21.8 µM)
- MIC Escherichia coli (GC 4560) (Escherichia coli; strain GC 4560, 18 hours at 35° C.): 8 µg/mL (≈ 5.46 µM)
- MIC Staphylococcus aureus (GC 1131) (Staphylococcus sp.; inoculum 5×10^5 CFU/mL): 8 µg/mL (≈ 5.46 µM)
- MIC Staphylococcus aureus (ATCC 29213) (Staphylococcus sp.; strain ATCC 29213): 8 µg/mL (≈ 5.46 µM)
- MIC Staphylococcus aureus (GC 1131) (Staphylococcus sp.): 8 µg/mL (≈ 5.46 µM)
- MIC Staphylococcus aureus (GC 3051) (Staphylococcus sp.; strain GC 3051): 8 µg/mL (≈ 5.46 µM)
- MIC Staphylococcus aureus (GC 3053) (Staphylococcus sp.; strain GC 3053): 8 µg/mL (≈ 5.46 µM)
- MIC Staphylococcus aureus (GC 4541) (Staphylococcus sp.; strain GC 4541): 8 µg/mL (≈ 5.46 µM)
- MIC Staphylococcus aureus (GC 4542) (Staphylococcus sp.; strain GC 4542): 16 µg/mL (≈ 10.9 µM)
- MIC Staphylococcus aureus-SMITH (GC 4543) (Staphylococcus sp.; strain GC 4543): 8 µg/mL (≈ 5.46 µM)
- MIC Staphylococcus aureus (GC 4544) (Staphylococcus sp.; strain GC 4544): 8 µg/mL (≈ 5.46 µM)
- MIC Staphylococcus aureus (GC 4545) (Staphylococcus sp.; strain GC 4545): 8 µg/mL (≈ 5.46 µM)
- MIC Coagulase Negative Staphylococcus (GC 4547) (Staphylococcus sp.; strain GC 4547): 8 µg/mL (≈ 5.46 µM)
- MIC Coagulase Negative Staphylococcus (GC 4548) (Staphylococcus sp.; strain GC 4548): 4 µg/mL (≈ 2.73 µM)
- MIC Coagulase Negative Staphylococcus (GC 4549) (Staphylococcus sp.; strain GC 4549): 4 µg/mL (≈ 2.73 µM)
- MIC Coagulase Negative Staphylococcus (GC 4551) (Staphylococcus sp.; strain GC 4551): 8 µg/mL (≈ 5.46 µM)
- MIC Coagulase Negative Staphylococcus (GC 6257) (Staphylococcus sp.; strain GC 6257): 4 µg/mL (≈ 2.73 µM)
- MIC Staphylococcus aureus-SMITH (GC 4543) (Staphylococcus sp.; strain SMITH GC 4543): 8 µg/mL (≈ 5.46 µM)
- MIC Streptococcus pneumoniae (ATCC 6301) (Streptococcus sp.; inoculum 5×10^5 CFU/mL): 1 µg/mL (≈ 0.682 µM)
- MIC Streptococcus pneumoniae (GC 1894) (Streptococcus sp.; inoculum 5×10^5 CFU/mL): 0.25 µg/mL (≈ 0.171 µM)
- MIC Streptococcus pyogenes (GC 4563) (Streptococcus sp.; inoculum 5×10^5 CFU/mL): 0.5 µg/mL (≈ 0.341 µM)
- MIC Streptococcus agalactiae (GC 4564) (Streptococcus sp.; inoculum 5×10^5 CFU/mL): 1 µg/mL (≈ 0.682 µM)
- MIC Streptococcus pneumoniae (GC 4565) (Streptococcus sp.; inoculum 5×10^5 CFU/mL): 1 µg/mL (≈ 0.682 µM)
- MIC Streptococcus pneumoniae (ATCC 6301) (Streptococcus sp.): 1 µg/mL (≈ 0.682 µM)
- MIC Streptococcus pneumoniae (GC 1894) (Streptococcus sp.): 0.25 µg/mL (≈ 0.171 µM)
- MIC Streptococcus pyogenes (GC 4563) (Streptococcus sp.): 0.5 µg/mL (≈ 0.341 µM)
- MIC Streptococcus agalactiae (GC 4564) (Streptococcus sp.): 1 µg/mL (≈ 0.682 µM)
- MIC Streptococcus pneumoniae (GC 4565) (Streptococcus sp.): 1 µg/mL (≈ 0.682 µM)
SMILES: CC(c1ccccc1)C1NC(=O)CNC(=O)C(CO)NC(=O)C(C(O)C2CNC(=N)N2C2OC(CO)C(O)C(O)C2O)NC(=O)C(C(O)C2CNC(=N)N2)NC(=O)C(Cc2ccc(OC3OC(CO)C(OC4OC(CO)C(O)C5OC(c6ccc(-c7ccsc7)cc6)OC45)C(O)C3O)cc2)NC1=O (stereo not drawn) [Example 164a]
- MIC Staphylococcus haemolyticus (GC 4546) (Staphylococcus sp.; strain GC 4546): 4 µg/mL (≈ 2.73 µM)
